# Test results as given in patent publication US11903911B1, “Method of treating obesity by reversal of Na/K-Atpase inhibition” (Marshall University Research Corporation, priority 2019, dated 2024).
# “Also recorded” adds a separate entry of the source.
# Columns and labels:
# [1] = tested on: SGLT1; test: Na-glucose co-transport (SGLT1) uptake in villus cell BBMV of L-NAME-treated obese rats; format: in vivo, rat; details: obese rats (OZR) treated for at least one week with L-NAME; FIG. 21
# From the text: Animal models and treatment. Zucker rats (Strain code: 185 (Obese), 186 (Lean); 18 wks) obtained from Charles River Laboratories International, Inc. were used as a genetic model of obesity, and C57BL/6 mice (B6) (The Jackson Laboratory) and Sprague Dawley rats (Strain code: 400; Charles River Laboratories International, Inc.) were used as a diet-induced model of obesity. B6 mice were fed with either a low-fat diet (LFD) (10% calories from fat; Cat. No: 58124, LabDiet, USA) or high-fat diet (HFD) (60% calories from fat; Cat. No: 58126, LabDiet, USA) starting at 4 weeks of age until they reached 20 weeks of age. Sprague Dawley rats were fed the above-mentioned diets from the age of 12 weeks for 6 weeks to induce obesity. […] Studies determined that 10 mg dose of L-NAME was the lowest dose to consistently affect transporter activities and was therefore used in all subsequent experiments. […]
# Uptake studies in intact villus cells and BBMVs. […] Filters with intact villus cells were dissolved in 5 ml scintillation fluid (Ecoscint, National Diagnostics), and radioactivity was determined in a Beckman 6500 Beta Scintillation Counter. […] The uptake experiment results were expressed as Na-glucose co-transport uptake in nanomoles per milligram protein at 60 sec for mice or 90 sec for rats. […]
# [2] = tested on: Cl:HCO3 exchange (DRA/PAT1); test: Cl/HCO3 exchange uptake in BBMV of L-NAME-treated obese rats; format: in vivo, rat; details: obese rats (OZR) treated for at least one week with L-NAME; FIG. 22
# From the text: (§1) Animal models and treatment. Zucker rats (Strain code: 185 (Obese), 186 (Lean); 18 wks) obtained from Charles River Laboratories International, Inc. were used as a genetic model of obesity, and C57BL/6 mice (B6) (The Jackson Laboratory) and Sprague Dawley rats (Strain code: 400; Charles River Laboratories International, Inc.) were used as a diet-induced model of obesity. B6 mice were fed with either a low-fat diet (LFD) (10% calories from fat; Cat. No: 58124, LabDiet, USA) or high-fat diet (HFD) (60% calories from fat; Cat. No: 58126, LabDiet, USA) starting at 4 weeks of age until they reached 20 weeks of age. Sprague Dawley rats were fed the above-mentioned diets from the age of 12 weeks for 6 weeks to induce obesity. To inhibit constitutive nitric oxide production in both mice and rats, the animals were first treated with either a 10 or 25 mg/kg per day dosage of used N^G-nitro-L-arginine methyl ester (L-NAME). Studies determined that 10 mg dose of L-NAME was the lowest dose to consistently affect transporter activities and was therefore used in all subsequent experiments. […] Cl/HCO3 exchange uptake was measured in BBMV by rapid filtration technique as previously described. […] Results were calculated as the HCO3 dependent DIDS sensitive Cl uptake.
# [3] = tested on: NHE3; test: Na/H exchange (NHE3) uptake in BBMV of L-NAME-treated obese rats; format: in vivo, rat; details: obese rats treated with L-NAME; FIG. 23
# From the text: as §1, with “Na/H” for “Cl/HCO3”, “The results” for “Results”, “expressed” for “calculated”, “Na/H exchange in picomoles per milligram protein at 60 sec.” for “the HCO3 dependent DIDS sensitive Cl uptake.”
# [4] = tested on: transporter activities; test: L-NAME dose finding on intestinal transporter activities; format: in vivo; details: 10 or 25 mg/kg per day tested in mice and rats
# From the text: Animal models and treatment. Zucker rats (Strain code: 185 (Obese), 186 (Lean); 18 wks) obtained from Charles River Laboratories International, Inc. were used as a genetic model of obesity, and C57BL/6 mice (B6) (The Jackson Laboratory) and Sprague Dawley rats (Strain code: 400; Charles River Laboratories International, Inc.) were used as a diet-induced model of obesity. B6 mice were fed with either a low-fat diet (LFD) (10% calories from fat; Cat. No: 58124, LabDiet, USA) or high-fat diet (HFD) (60% calories from fat; Cat. No: 58126, LabDiet, USA) starting at 4 weeks of age until they reached 20 weeks of age. Sprague Dawley rats were fed the above-mentioned diets from the age of 12 weeks for 6 weeks to induce obesity. To inhibit constitutive nitric oxide production in both mice and rats, the animals were first treated with either a 10 or 25 mg/kg per day dosage of used N^G-nitro-L-arginine methyl ester (L-NAME). Studies determined that 10 mg dose of L-NAME was the lowest dose to consistently affect transporter activities and was therefore used in all subsequent experiments. For the diet-induced mice obesity model, LFD and HFD fed B6 mice were treated with this dose from the age of 20 weeks, and Sprague Dawley rats were treated from the age of 17 wks for 1 week. All the experimental animals were handled and euthanized according to Marshall University IACUC regulations.
structure (smiles),measurement,setting,value
"COC(=O)[C@@H](N)CCCNC(=N)N[N+](=O)[O-] [L-NAME, N^G-nitro-L-arginine methyl ester]",effect on the stimulation of SGLT1 (glucose absorption) in obese rats,[1],reversed the stimulation of SGLT1
same,effect on the stimulation of Cl:HCO3 (NaCl absorption) in obese rats,[2],reversed the stimulation of Cl:HCO3
same,effect on NHE3 activity in obese rats,[3],did not affect NHE3; also recorded: does not affect NHE3 activity
same,lowest dose to consistently affect transporter activities,[4],10 mg
